Experimental data from patent publication US8828926B2, “Uses of natriuretic peptide constructs” (priority 2010, dated 2014).
Positions of bridges follow the written chain, without caps; N, C: chain ends. Non-standard residues stand in square brackets, D forms with d. Residues, ends and D or L forms follow the SMILES beside them. *: point of attachment. X1 = N=C(N)NCCC[C@H]1C(=O)N[C@@H](C(N)=O)CN1*; dNle = CCCC[C@@H](N)C(=O)O; Heptanoyl = CCCCCCC(=O)*

Key:
human lung tissues = test: Human precision-cut lung slice relaxation, precontracted with carbachol; type: cell-based
human NEP (hNEP) = human NEP (hNEP) (Homo sapiens, UniProt P08473); test: Metabolism by human neutral endopeptidase (hNEP) solution at 37° C.; type: in vitro ADME; settings: substrate concentration 50 μM; for remaining at 2 h, 50 μM: read-out: percent remaining after 2-hour exposure to hNEP
Protocol: . Pharmacol. 191:341-366 (2009)). A comparison was made between the sensitivity of the construct of formula IV and ANP to metabolism by human NEP (hNEP) (substrate concentration 50 μM). After 2-hour exposure to hNEP solution at 37° C., there was minimal degradation of the construct of formula IV (92% remaining; n=5). In contrast, under these conditions ANP was about 90% degraded after 60 minutes and 100% after 2-hours (n=4). […] Results are shown in FIG. 1; results in FIG. 1 are expressed as the percent of the starting material, and are either the mean of 1-5 experiments or, where error bars are shown, are the mean±standard deviation.

[1] = Potter et al. 2009; cited from earlier work
[2] = tested on: bronchoconstrictor response evoked by methacholine; test: Methacholine-evoked bronchoconstriction in anesthetized guinea pigs, intratracheal delivery; type: in vivo, guinea pigs (Dunkin Hartley); settings: 1000 μg/kg IT, 15 minutes, methacholine 10 μg/mL
Protocol: Studies were conducted with intratracheal (IT) delivery of the construct of formula IV in anesthetized guinea pigs (Dunkin Hartley) challenged with the muscarinic receptor agonist, methacholine. […] The inhibition was maintained for all doses after the 60 minute pretreatment time. The duration of action of 10 μg/kg and 100 μg/kg doses of the construct of formula IV was explored (FIGS. 4C and 4D). For both doses the inhibition extended to 120 minutes post-administration, although it was reduced, with inhibitory effect absent after 240 minutes pretreatment.

Chain of human NEP (hNEP) (P08473 whole entry): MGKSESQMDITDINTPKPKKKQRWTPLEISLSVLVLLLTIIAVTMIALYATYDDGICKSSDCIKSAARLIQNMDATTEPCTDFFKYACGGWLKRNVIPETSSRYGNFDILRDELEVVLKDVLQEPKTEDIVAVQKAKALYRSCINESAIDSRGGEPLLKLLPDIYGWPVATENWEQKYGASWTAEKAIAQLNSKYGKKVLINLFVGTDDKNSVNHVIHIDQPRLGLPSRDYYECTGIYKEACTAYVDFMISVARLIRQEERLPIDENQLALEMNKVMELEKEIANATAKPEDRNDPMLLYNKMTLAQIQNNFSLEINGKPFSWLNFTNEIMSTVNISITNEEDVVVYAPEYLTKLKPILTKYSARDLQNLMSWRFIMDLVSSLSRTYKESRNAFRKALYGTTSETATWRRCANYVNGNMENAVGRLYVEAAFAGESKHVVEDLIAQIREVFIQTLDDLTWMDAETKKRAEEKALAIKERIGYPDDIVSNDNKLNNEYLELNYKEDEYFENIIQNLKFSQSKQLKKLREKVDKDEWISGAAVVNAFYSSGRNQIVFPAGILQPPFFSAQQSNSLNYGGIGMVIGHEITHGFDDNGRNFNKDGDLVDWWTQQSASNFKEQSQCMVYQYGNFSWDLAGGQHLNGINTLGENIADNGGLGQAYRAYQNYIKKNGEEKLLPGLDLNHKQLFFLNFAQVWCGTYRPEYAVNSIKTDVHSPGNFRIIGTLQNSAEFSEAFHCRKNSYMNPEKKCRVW

For `CC(C)NCC(O)c1ccc(O)c(O)c1` (stereo not shown) [Isoprenaline], which “relaxation of carbachol-induced contraction” value (human lung tissues; 100 μM, human lung slices) is on record?
Its value is “about 75%”.

What about the Isoproterenol-mediated broncho-dilatation (human lung tissues; in the absence of the construct of formula IV, n=4) of the same molecule?
The Isoproterenol-mediated broncho-dilatation was 88.2±3.4%.

With `CCCCCCC(=O)N[C@H]1CSSC[C@@H](C(=O)N[C@@H](Cc2ccc(O)cc2)C(=O)N2C[C@H](C(N)=O)NC(=O)[C@@H]2CCCNC(=N)N)NC(=O)[C@H](CO)NC(=O)[C@H]([C@@H](C)CC)NC(=O)[C@H](CCCNC(=N)N)NC(=O)[C@H](CC(=O)O)NC(=O)[C@@H](CCCC)NC(=O)[C@H](CCCNC(=N)N)NC(=O)CNC(=O)[C@@H](C)NC(=O)[C@H](Cc2ccccc2)NC(=O)[C@H](Cc2c[nH]cn2)NC1=O` [construct of formula IV] (Heptanoyl-CHF[dA]GR[dNle]DRISCY-X1; disulfide 1-12) as the molecule, how does the remaining at 2 h, 50 μM (human NEP (hNEP)) read?
The remaining at 2 h, 50 μM was 92%.

Which “reported human plasma half-life” value [1] does the source give for `CC[C@H](C)[C@@H]1NC(=O)[C@H](CCCNC(=N)N)NC(=O)[C@H](CC(=O)O)NC(=O)[C@H](CC(C)C)NC(=O)[C@H](CCCCN)NC(=O)[C@H](CC(C)C)NC(=O)CNC(=O)[C@H](Cc2ccccc2)NC(=O)[C@@H](NC(=O)CNC(=O)[C@H](CCCCN)NC(=O)[C@H](CO)NC(=O)[C@H](CC(C)C)NC(=O)CN)CSSC[C@@H](C(=O)O)NC(=O)CNC(=O)[C@H](CC(C)C)NC(=O)CNC(=O)[C@H](CO)NC(=O)[C@H](CCSC)NC(=O)[C@H](CO)NC(=O)CNC1=O` [hCNP] here?
The value was “about 2 minutes”.

And the remaining at 1 h, 50 μM (human NEP (hNEP); 60 min, read-out: percent remaining after 60-min incubation with hNEP)?
Its remaining at 1 h, 50 μM is 39%.

What about the remaining at 2 h, 50 μM (human NEP (hNEP)) of the same molecule?
The remaining at 2 h, 50 μM was 1%.

Which “maximum inhibition of bronchoconstrictor response” value [2] does the source give for `CC(C)(C)NCC(O)c1ccc(O)c(CO)c1` (stereo not shown) [salbutamol] here?
The value was 87±2%.
